Patent USRE47885E1, “Use of cannabidiol prodrugs in pharmaceutical compositions” (Zynerba Pharmaceuticals, Inc., priority 2009, dated 2020)

Legend:
[1] = cited from earlier work
[2] = Previous studies: permeation through intact skin (non-MN treated, 100% ddH2O donor solution); assay type: in vitro ADME
Description: Likewise, short lag times were observed throughout the study for the ALL00179-treated skin. […] In this study, the total amount of CBD delivered from a 25 mg ALL00179-containing donor solution was 0.2±0.1 mg total CBD equivalents in the skin and 1.0±0.2 mg total CBD equivalents in the receiver solution after 48 hr. This accounts for approximately 4.8% of the total ALL00179 in the donor solution.

[3] = assay type: in vitro ADME; details: ALL00179 added to human plasma; for Percent Prodrug and CBD at time (min) 0*: 0 min (approximately 1 minute of mixing and withdrawal); for Percent Prodrug and CBD at time (min) 5: 5 min; for Percent Prodrug and CBD at time (min) 10: 10 min; for Percent Prodrug and CBD at time (min) 20: 20 min; for Percent Prodrug and CBD at time (min) 30: 30 min; for Percent Prodrug and CBD at time (min) 60: 60 min; for Percent Prodrug and CBD at time (min) 120: 120 min
Description: Stability of the prodrug in human plasma was performed to monitor the conversion of ALL00179 to the monosubstituted form, ALL00180, and CBD. The molecular structure of ALL00180 and CBD are shown below: […]

[4] = In vitro diffusion study through microneedle-treated full thickness Yucatan pig skin (flow-through diffusion cell); assay type: in vitro ADME; details: ALL00179 100% ddH2O donor solution, end of 48 h diffusion study
Source text: The purpose of the diffusion study was to determine whether microneedle (MN) treated skin would allow the rapid permeation of a water-soluble prodrug of CBD (ALL00179) compared to CBD.
Briefly, full thickness Yucatan pig (YP) skin was used to perform the microneedle studies. The average thickness of the YP skin was approximately 1.0±0.1 mm. A PermeGear flow-through (In-Line, Hellertown, Pa.) diffusion cell system was used for the skin permeation studies. One hundred microneedle insertions were made into the skin before mounting in the flow-through diffusion cell by treating the skin 20 times with an array containing 5 microneedles. Each cell was charged with 250 μl of either 318 mM CBD (n=4) or ALL00179 (n=5) and occluded with rubber stoppers. Ten percent ethanol in water was used as a receiver solution. Samples were collected at six-hour intervals for a total of 48 hours. (See FIG. 1 for the permeation profile.)

[5] = Chemical stability of ALL00179 in 100% ddH2O donor solution; assay type: physicochemical; details: for purity level after 72 hr: ALL00179 after 72 hr in ddH7O at RT; for initial purity (composition of ALL00179 sample): ALL00179 for 100% ddH2O donor solution
Description: ALL00179 was placed in 100% ddH2O donor solution to check chemical stability. The initial purity of ALL00179 was 94.7% ALL00179, 5.3% ALL00180, and 0% CBD. After 72 hr in ddH7O at RT, the purity level was determined to be 86.8% ALL00179, 13.2% ALL00180 and 0% CBD.

[6] = Permeation from an optimized gel system of cannabidiol through intact dermatomed human skin; assay type: in vitro ADME; details: optimized gel system of cannabidiol (2.5% w/w), dosed every 12 hr
Source text: As a comparison, permeation from an optimized gel system of cannabidiol (2.5% w/w) through intact dermatomed human skin, dosed every 12 hr, gave a flux of 5.2 nmol/cm^2/h. The total CBD flux from ALLL00179 after MN treatment of full thickness Yucatan pig skin was 63.2±11.4 nmol/cm^2/h, resulting in a 12.2 fold enhancement of flux.

[7] = used in conjunction with microneedles

Q: For `O=C1CC[C@@]2(O)[C@H]3Cc4ccc(O)c5c4[C@@]2(CCN3CC2CC2)[C@H]1O5` [naltrexone], which naltrexone levels ([1]; 16% naltrexone hydrochloride gel, 6 healthy human volunteers, microneedle pretreatment) is on record?
A: 2.5 ± 1.1 ng/mL

Q: And the “duration of steady state naltrexone concentrations” value [1, 7]?
A: 48 h

Q: What about the “time to steady state naltrexone concentrations” value [1, 7] of the same compound?
A: within two hours

Q: What does the source list for `C=C(C)[C@@H]1CCC(C)=C[C@H]1c1c(OC(=O)C[N+](C)(C)C)cc(CCCCC)cc1OC(=O)C[N+](C)(C)C.[Cl-].[Cl-]` [ALL00179]?
A: flux through intact skin [2]: no flux; Percent Prodrug and CBD at time (min) 0* [3]: 9.2%; Percent Prodrug and CBD at time (min) 5 [3]: 3.0%; Percent Prodrug and CBD at time (min) 10 [3]: 0.0%; Percent Prodrug and CBD at time (min) 20 [3]: 0.0%; Percent Prodrug and CBD at time (min) 30 [3]: 0.0%; Percent Prodrug and CBD at time (min) 60 [3]: 0.0%; Percent Prodrug and CBD at time (min) 120 [3]: 0.0%; composition of the donor solutions at the end of the study [4]: 84.3±2.6%; purity level after 72 hr [5]: 86.8%; initial purity (composition of ALL00179 sample) [5]: 94.7%

Q: For `C=C(C)[C@@H]1CCC(C)=C[C@H]1c1c(O)cc(CCCCC)cc1OC(=O)C[N+](C)(C)C` [ALL00180], which “Percent Prodrug and CBD at time (min) 0*” value [3] is on record?
A: 86.1%

Q: What about the “Percent Prodrug and CBD at time (min) 5” value [3] of the same compound?
A: 66.8%

Q: And the “Percent Prodrug and CBD at time (min) 10” value [3]?
A: 44.9%

Q: And the “Percent Prodrug and CBD at time (min) 20” value [3]?
A: 22.9%

Q: What about the “Percent Prodrug and CBD at time (min) 30” value [3] of the same compound?
A: 10.6%

Q: And the “Percent Prodrug and CBD at time (min) 60” value [3]?
A: 2.4%

Q: What about the “Percent Prodrug and CBD at time (min) 120” value [3] of the same compound?
A: 0.0%

Q: What about the “composition of the donor solutions at the end of the study” value [4] of the same compound?
A: 15.7±2.6%

Q: And the “purity level after 72 hr” value [5]?
A: 13.2%

Q: What about the “initial purity (composition of ALL00179 sample)” value [5] of the same compound?
A: 5.3%

Q: For `C=C(C)[C@@H]1CCC(C)=C[C@H]1c1c(O)cc(CCCCC)cc1O` [Cannabidiol], which “drug detected in the skin” value [2] is on record?
A: none

Q: What about the “flux through intact skin” value [2] of the same compound?
A: no flux

Q: What about the “Percent Prodrug and CBD at time (min) 0*” value [3] of the same compound?
A: 4.7%

Q: What about the “Percent Prodrug and CBD at time (min) 5” value [3] of the same compound?
A: 30.2%

Q: And the “Percent Prodrug and CBD at time (min) 10” value [3]?
A: 55.1%

Q: What about the “Percent Prodrug and CBD at time (min) 20” value [3] of the same compound?
A: 77.1%

Q: What about the “Percent Prodrug and CBD at time (min) 30” value [3] of the same compound?
A: 89.4%

Q: What about the “Percent Prodrug and CBD at time (min) 60” value [3] of the same compound?
A: 97.6%

Q: And the “Percent Prodrug and CBD at time (min) 120” value [3]?
A: 100%

Q: What about the “composition of the donor solutions at the end of the study” value [4] of the same compound?
A: 0%

Q: And the “purity level after 72 hr” value [5]?
A: 0%

Q: What about the “initial purity (composition of ALL00179 sample)” value [5] of the same compound?
A: 0%

Q: And the flux [6]?
A: 5.2 nmol/cm^2/h
